Reference: the kinase profiling compilation of Christmann-Franck et al. (2016)

Molecular target: EPHB2 (human) (UniProt P29323)
Assay: KINOMEscan competition binding
Settings: compound 10.0 µM

EPHB2 (human), sequence (P29323 whole entry, looked up): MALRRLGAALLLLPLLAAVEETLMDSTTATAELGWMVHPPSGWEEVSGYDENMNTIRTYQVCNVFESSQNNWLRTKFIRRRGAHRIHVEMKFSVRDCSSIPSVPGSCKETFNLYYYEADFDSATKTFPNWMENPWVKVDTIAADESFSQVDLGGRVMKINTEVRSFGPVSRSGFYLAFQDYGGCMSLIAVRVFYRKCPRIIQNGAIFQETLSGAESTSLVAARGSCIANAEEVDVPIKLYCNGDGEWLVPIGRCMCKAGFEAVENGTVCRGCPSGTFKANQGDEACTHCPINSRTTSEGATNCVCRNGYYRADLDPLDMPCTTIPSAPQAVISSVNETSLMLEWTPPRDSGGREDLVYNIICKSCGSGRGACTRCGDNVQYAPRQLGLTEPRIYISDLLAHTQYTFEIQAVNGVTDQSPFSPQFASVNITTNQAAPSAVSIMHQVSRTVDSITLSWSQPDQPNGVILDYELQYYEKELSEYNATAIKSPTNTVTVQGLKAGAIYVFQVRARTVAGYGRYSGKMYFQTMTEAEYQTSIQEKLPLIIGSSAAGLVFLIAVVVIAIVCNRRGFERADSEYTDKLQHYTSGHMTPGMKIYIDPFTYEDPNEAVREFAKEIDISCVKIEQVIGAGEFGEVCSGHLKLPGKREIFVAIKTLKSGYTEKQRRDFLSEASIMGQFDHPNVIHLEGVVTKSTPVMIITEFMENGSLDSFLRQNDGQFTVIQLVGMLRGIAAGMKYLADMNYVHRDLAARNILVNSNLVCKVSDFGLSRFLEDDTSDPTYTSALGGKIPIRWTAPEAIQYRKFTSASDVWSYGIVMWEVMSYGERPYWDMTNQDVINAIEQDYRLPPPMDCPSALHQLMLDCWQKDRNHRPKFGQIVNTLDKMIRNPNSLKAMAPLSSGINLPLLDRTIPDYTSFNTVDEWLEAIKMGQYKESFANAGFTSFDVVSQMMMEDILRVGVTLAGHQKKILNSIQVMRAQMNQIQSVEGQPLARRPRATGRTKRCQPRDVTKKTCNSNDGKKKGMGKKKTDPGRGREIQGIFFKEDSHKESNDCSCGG

Row | Compound | kinase still bound, per cent of control [%]
1 | CCN1CCN(Cc2ccc(NC(=O)c3ccc(C)c(/C=C/c4cnc(Nc5cc(N6CCNCC6)nc(C)n5)cn4)c3)cc2C(F)(F)F)CC1 | 5.7
2 | COc1cc(N2CCC(N3CCN(C)CC3)CC2)ccc1Nc1ncc(Cl)c(Nc2ccccc2S(=O)(=O)C(C)C)n1 | 33
3 | CCOc1cc(N2CCC(N3CCCCC3)CC2)ccc1Nc1nc(Nc2ccccc2S(=O)(=O)C(C)C)c2cn[nH]c2n1 | 100
4 | CCN1CCN(Cc2ccc(NC(=O)c3ccc(C)c(Oc4ccnc5[nH]ccc45)c3)cc2C(F)(F)F)CC1 | 11

Molecular target: STK32C (human) (UniProt Q86UX6)
Assay: KINOMEscan competition binding
Settings: compound 10.0 µM

STK32C (human), sequence (Q86UX6 whole entry, looked up): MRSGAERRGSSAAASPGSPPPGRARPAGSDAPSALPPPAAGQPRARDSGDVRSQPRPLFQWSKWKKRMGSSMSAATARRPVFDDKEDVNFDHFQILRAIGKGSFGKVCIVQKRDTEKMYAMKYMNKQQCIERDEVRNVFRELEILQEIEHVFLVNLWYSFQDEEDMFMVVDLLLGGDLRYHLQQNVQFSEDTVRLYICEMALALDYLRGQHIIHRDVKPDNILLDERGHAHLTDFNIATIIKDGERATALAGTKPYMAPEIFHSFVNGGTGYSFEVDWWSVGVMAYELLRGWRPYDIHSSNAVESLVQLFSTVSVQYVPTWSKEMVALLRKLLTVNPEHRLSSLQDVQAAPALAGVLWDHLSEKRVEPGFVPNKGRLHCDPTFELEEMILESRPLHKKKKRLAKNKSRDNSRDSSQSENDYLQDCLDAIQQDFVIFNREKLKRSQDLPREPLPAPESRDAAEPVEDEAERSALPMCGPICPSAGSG

Row | Compound | kinase still bound, per cent of control [%]
5 | CCN1CCN(Cc2ccc(NC(=O)c3ccc(C)c(/C=C/c4cnc(Nc5cc(N6CCNCC6)nc(C)n5)cn4)c3)cc2C(F)(F)F)CC1 | 96
6 | COc1cc(N2CCC(N3CCN(C)CC3)CC2)ccc1Nc1ncc(Cl)c(Nc2ccccc2S(=O)(=O)C(C)C)n1 | 3.1
7 | CCOc1cc(N2CCC(N3CCCCC3)CC2)ccc1Nc1nc(Nc2ccccc2S(=O)(=O)C(C)C)c2cn[nH]c2n1 | 88

Molecular target: MAP3K10 (human) (UniProt Q02779)
Assay: KINOMEscan competition binding
Settings: compound 10.0 µM

Row | Compound | kinase still bound, per cent of control [%]
8 | CCN1CCN(Cc2ccc(NC(=O)c3ccc(C)c(/C=C/c4cnc(Nc5cc(N6CCNCC6)nc(C)n5)cn4)c3)cc2C(F)(F)F)CC1 | 30
9 | COc1cc(N2CCC(N3CCN(C)CC3)CC2)ccc1Nc1ncc(Cl)c(Nc2ccccc2S(=O)(=O)C(C)C)n1 | 4.6
10 | CCOc1cc(N2CCC(N3CCCCC3)CC2)ccc1Nc1nc(Nc2ccccc2S(=O)(=O)C(C)C)c2cn[nH]c2n1 | 100

Molecular target: MAP3K3 (human) (UniProt Q99759)
Assay: KINOMEscan competition binding
Settings: compound 10.0 µM

MAP3K3 (human), sequence (Q99759 whole entry, looked up): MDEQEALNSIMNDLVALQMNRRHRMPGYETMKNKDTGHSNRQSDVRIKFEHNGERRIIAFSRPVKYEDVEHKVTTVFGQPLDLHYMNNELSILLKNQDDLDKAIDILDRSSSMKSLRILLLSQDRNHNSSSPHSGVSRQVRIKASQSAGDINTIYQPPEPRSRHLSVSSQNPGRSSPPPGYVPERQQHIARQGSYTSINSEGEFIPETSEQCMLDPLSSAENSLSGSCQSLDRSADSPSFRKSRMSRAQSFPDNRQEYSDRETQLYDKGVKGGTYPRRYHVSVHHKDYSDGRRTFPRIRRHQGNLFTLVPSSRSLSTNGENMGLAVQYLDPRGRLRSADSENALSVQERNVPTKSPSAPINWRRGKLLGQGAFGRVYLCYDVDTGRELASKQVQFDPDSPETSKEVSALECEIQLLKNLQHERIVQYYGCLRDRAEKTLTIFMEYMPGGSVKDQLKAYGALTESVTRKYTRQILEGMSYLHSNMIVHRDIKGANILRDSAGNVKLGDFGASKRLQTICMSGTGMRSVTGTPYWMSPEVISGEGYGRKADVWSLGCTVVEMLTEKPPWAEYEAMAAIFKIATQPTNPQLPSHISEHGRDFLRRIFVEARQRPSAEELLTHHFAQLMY

Row | Compound | kinase still bound, per cent of control [%]
11 | CCN1CCN(Cc2ccc(NC(=O)c3ccc(C)c(/C=C/c4cnc(Nc5cc(N6CCNCC6)nc(C)n5)cn4)c3)cc2C(F)(F)F)CC1 | 0.3
12 | COc1cc(N2CCC(N3CCN(C)CC3)CC2)ccc1Nc1ncc(Cl)c(Nc2ccccc2S(=O)(=O)C(C)C)n1 | 2.8
13 | CCOc1cc(N2CCC(N3CCCCC3)CC2)ccc1Nc1nc(Nc2ccccc2S(=O)(=O)C(C)C)c2cn[nH]c2n1 | 69
14 | CCN1CCN(Cc2ccc(NC(=O)c3ccc(C)c(Oc4ccnc5[nH]ccc45)c3)cc2C(F)(F)F)CC1 | 12

Molecular target: MYLK (human) (UniProt Q15746)
Assay: KINOMEscan competition binding
Settings: compound 10.0 µM

MYLK (human), sequence (Q15746 whole entry, looked up): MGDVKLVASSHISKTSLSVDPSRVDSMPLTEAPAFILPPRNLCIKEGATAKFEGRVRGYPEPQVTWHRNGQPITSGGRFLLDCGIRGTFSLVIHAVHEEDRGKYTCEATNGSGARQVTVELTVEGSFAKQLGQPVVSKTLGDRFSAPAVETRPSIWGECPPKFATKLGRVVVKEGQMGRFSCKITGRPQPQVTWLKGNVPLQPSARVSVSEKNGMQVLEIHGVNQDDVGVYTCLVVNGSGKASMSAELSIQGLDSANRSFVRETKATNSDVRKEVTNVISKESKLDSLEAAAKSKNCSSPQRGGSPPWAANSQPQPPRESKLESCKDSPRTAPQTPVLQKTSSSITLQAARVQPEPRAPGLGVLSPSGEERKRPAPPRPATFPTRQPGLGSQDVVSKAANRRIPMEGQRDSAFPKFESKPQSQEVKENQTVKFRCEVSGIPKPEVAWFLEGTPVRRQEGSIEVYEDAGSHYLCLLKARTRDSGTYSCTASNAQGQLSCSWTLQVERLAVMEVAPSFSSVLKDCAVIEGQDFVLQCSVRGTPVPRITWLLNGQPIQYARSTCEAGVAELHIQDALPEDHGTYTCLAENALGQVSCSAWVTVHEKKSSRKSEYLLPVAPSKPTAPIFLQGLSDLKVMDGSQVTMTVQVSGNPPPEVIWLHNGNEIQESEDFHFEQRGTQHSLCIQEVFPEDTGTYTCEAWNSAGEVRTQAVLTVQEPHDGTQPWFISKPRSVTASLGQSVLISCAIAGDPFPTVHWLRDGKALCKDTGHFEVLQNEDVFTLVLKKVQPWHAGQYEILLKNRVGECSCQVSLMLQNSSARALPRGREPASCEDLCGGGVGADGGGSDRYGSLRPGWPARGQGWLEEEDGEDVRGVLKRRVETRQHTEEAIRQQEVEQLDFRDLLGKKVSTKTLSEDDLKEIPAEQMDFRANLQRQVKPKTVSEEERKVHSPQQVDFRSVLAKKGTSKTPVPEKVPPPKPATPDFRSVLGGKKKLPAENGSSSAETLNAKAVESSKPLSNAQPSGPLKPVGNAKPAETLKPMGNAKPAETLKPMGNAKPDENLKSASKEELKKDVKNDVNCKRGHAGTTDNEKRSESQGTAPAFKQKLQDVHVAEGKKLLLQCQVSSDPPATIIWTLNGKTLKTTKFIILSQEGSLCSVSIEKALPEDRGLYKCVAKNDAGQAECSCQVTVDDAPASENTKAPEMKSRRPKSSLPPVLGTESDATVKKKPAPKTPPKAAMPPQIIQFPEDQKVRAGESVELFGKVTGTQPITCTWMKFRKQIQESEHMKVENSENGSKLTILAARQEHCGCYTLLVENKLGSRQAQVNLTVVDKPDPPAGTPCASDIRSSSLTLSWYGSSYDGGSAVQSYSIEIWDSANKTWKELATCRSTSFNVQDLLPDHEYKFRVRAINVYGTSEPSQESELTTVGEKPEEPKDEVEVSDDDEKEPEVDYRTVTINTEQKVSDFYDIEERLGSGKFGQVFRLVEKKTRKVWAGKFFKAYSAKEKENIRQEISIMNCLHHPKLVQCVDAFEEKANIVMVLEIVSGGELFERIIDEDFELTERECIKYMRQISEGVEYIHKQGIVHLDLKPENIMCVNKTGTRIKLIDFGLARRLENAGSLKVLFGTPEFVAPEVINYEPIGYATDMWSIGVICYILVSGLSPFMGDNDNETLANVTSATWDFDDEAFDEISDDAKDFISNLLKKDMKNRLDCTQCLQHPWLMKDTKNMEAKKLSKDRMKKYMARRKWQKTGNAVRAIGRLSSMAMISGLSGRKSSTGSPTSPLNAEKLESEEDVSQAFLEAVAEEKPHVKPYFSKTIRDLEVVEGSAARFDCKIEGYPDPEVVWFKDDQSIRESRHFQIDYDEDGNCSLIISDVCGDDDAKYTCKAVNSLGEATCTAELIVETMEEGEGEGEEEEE

Row | Compound | kinase still bound, per cent of control [%]
15 | CCN1CCN(Cc2ccc(NC(=O)c3ccc(C)c(/C=C/c4cnc(Nc5cc(N6CCNCC6)nc(C)n5)cn4)c3)cc2C(F)(F)F)CC1 | 67
16 | COc1cc(N2CCC(N3CCN(C)CC3)CC2)ccc1Nc1ncc(Cl)c(Nc2ccccc2S(=O)(=O)C(C)C)n1 | 0.5
17 | CCOc1cc(N2CCC(N3CCCCC3)CC2)ccc1Nc1nc(Nc2ccccc2S(=O)(=O)C(C)C)c2cn[nH]c2n1 | 0.9

Molecular target: PTK2 (human) (UniProt Q05397)
Assay: KINOMEscan competition binding
Settings: compound 10.0 µM

Row | Compound | kinase still bound, per cent of control [%]
18 | CCN1CCN(Cc2ccc(NC(=O)c3ccc(C)c(/C=C/c4cnc(Nc5cc(N6CCNCC6)nc(C)n5)cn4)c3)cc2C(F)(F)F)CC1 | 100
19 | COc1cc(N2CCC(N3CCN(C)CC3)CC2)ccc1Nc1ncc(Cl)c(Nc2ccccc2S(=O)(=O)C(C)C)n1 | 0
20 | CCOc1cc(N2CCC(N3CCCCC3)CC2)ccc1Nc1nc(Nc2ccccc2S(=O)(=O)C(C)C)c2cn[nH]c2n1 | 0.2
21 | CCN1CCN(Cc2ccc(NC(=O)c3ccc(C)c(Oc4ccnc5[nH]ccc45)c3)cc2C(F)(F)F)CC1 | 23

Molecular target: PLK3 (human) (UniProt Q9H4B4)
Assay: KINOMEscan competition binding
Settings: compound 10.0 µM

PLK3 (human), sequence (Q9H4B4 whole entry, looked up): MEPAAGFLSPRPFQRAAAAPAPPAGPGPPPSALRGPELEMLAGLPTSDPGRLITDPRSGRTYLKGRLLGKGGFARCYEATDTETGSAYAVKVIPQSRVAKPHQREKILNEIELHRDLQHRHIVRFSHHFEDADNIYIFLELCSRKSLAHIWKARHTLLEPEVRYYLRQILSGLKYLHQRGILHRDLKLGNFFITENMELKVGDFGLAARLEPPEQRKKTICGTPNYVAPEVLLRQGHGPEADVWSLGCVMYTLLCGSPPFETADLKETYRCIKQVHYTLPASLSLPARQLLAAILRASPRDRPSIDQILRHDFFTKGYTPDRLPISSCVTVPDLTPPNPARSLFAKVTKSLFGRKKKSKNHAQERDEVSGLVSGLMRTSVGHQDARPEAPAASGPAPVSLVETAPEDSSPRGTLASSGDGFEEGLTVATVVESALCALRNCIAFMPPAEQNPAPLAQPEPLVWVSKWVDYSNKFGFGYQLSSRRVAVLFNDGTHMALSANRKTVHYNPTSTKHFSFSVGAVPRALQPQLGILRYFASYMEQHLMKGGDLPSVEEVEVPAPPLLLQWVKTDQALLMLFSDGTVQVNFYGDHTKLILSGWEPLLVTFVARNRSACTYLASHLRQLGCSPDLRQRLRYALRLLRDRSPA

Row | Compound | kinase still bound, per cent of control [%]
22 | CCN1CCN(Cc2ccc(NC(=O)c3ccc(C)c(/C=C/c4cnc(Nc5cc(N6CCNCC6)nc(C)n5)cn4)c3)cc2C(F)(F)F)CC1 | 83
23 | COc1cc(N2CCC(N3CCN(C)CC3)CC2)ccc1Nc1ncc(Cl)c(Nc2ccccc2S(=O)(=O)C(C)C)n1 | 0
24 | CCOc1cc(N2CCC(N3CCCCC3)CC2)ccc1Nc1nc(Nc2ccccc2S(=O)(=O)C(C)C)c2cn[nH]c2n1 | 98

Molecular target: RAF1 (human) (UniProt P04049)
Assay: KINOMEscan competition binding
Settings: compound 10.0 µM

Row | Compound | kinase still bound, per cent of control [%]
25 | CCN1CCN(Cc2ccc(NC(=O)c3ccc(C)c(/C=C/c4cnc(Nc5cc(N6CCNCC6)nc(C)n5)cn4)c3)cc2C(F)(F)F)CC1 | 43
26 | COc1cc(N2CCC(N3CCN(C)CC3)CC2)ccc1Nc1ncc(Cl)c(Nc2ccccc2S(=O)(=O)C(C)C)n1 | 40
27 | CCOc1cc(N2CCC(N3CCCCC3)CC2)ccc1Nc1nc(Nc2ccccc2S(=O)(=O)C(C)C)c2cn[nH]c2n1 | 100
28 | CCN1CCN(Cc2ccc(NC(=O)c3ccc(C)c(Oc4ccnc5[nH]ccc45)c3)cc2C(F)(F)F)CC1 | 7

Molecular target: SRPK3 (human) (UniProt Q9UPE1)
Assay: KINOMEscan competition binding
Settings: compound 10.0 µM

Row | Compound | kinase still bound, per cent of control [%]
29 | CCN1CCN(Cc2ccc(NC(=O)c3ccc(C)c(/C=C/c4cnc(Nc5cc(N6CCNCC6)nc(C)n5)cn4)c3)cc2C(F)(F)F)CC1 | 82
30 | COc1cc(N2CCC(N3CCN(C)CC3)CC2)ccc1Nc1ncc(Cl)c(Nc2ccccc2S(=O)(=O)C(C)C)n1 | 1.7
31 | CCOc1cc(N2CCC(N3CCCCC3)CC2)ccc1Nc1nc(Nc2ccccc2S(=O)(=O)C(C)C)c2cn[nH]c2n1 | 100

Molecular target: RIOK3 (human) (UniProt O14730)
Assay: KINOMEscan competition binding
Settings: compound 10.0 µM

Row | Compound | kinase still bound, per cent of control [%]
32 | CCN1CCN(Cc2ccc(NC(=O)c3ccc(C)c(/C=C/c4cnc(Nc5cc(N6CCNCC6)nc(C)n5)cn4)c3)cc2C(F)(F)F)CC1 | 78
33 | COc1cc(N2CCC(N3CCN(C)CC3)CC2)ccc1Nc1ncc(Cl)c(Nc2ccccc2S(=O)(=O)C(C)C)n1 | 3.2
34 | CCOc1cc(N2CCC(N3CCCCC3)CC2)ccc1Nc1nc(Nc2ccccc2S(=O)(=O)C(C)C)c2cn[nH]c2n1 | 88

Molecular target: FES (human) (UniProt P07332)
Assay: Z-Lyte, FRET
Settings: not given

Row | Compound | IC50 [µM]
35 | CCN1CCN(Cc2ccc(NC(=O)c3ccc(C)c(/C=C/c4cnc(Nc5cc(N6CCNCC6)nc(C)n5)cn4)c3)cc2C(F)(F)F)CC1 | 224
36 | CCOc1cc(N2CCC(N3CCCCC3)CC2)ccc1Nc1nc(Nc2ccccc2S(=O)(=O)C(C)C)c2cn[nH]c2n1 | 67
37 | CCN1CCN(Cc2ccc(NC(=O)c3ccc(C)c(Oc4ccnc5[nH]ccc45)c3)cc2C(F)(F)F)CC1 | 298
